Assay results: patent US9427433B2, “Methods and compositions for enhancing fertility and/or inhibiting pregnancy failure and restoring glucose tolerance” (Queen's University at Kingston, priority 2011, dated 2016)

Experiments:
[1] = test system: 60% high fat fed NZO and DIO mice; assay: Glucose tolerance test after tacrolimus; format: in vivo, mouse; details: all treated type 2 diabetic and obese mice; FIG. 16B
Description: Twenty NZO and DIO/B6 female mice were maintained on a high fat diet consisted of 60% kcal fat, 20% kcal protein and 20% kcal carbohydrate, with a total energy mass of 5.24 kcal/gm (D12492, Research Diets Inc.; […] Tacrolimus (Prograf (5 mg/ml), Astellas) was administered subcutaneously in a dose of 0.1 mg/kg q2d in 0.2 ml saline for three weeks to the obese and glucose intolerant NZO and DIO mice starting at the age of 10 weeks after which animals were mated to males of the same strain and pregnancy was dated from the morning of the positive detection of vaginal (copulation) plug. See FIG. 2. […] Briefly, basal glucose levels were measured for conscious mice individually caged in 1000 cc plastic mouse caging using a one-touch ultra glucose strips and meter (Acqui-check Aviva, Roche, Montreal, Canada) and approximately 30 microliters of blood obtained via tail venipuncture prior to fasting for six hours in cages equipped with hardwood bedding. Fasting blood glucose was recorded at the end of the six hours fasting period. […] Then after, blood glucose was recorded at 15, 30, 45, 60, 90 and 120 minutes respectively. For Si experiments blood glucose was determined only at 15 minutes. Glucose tolerance graphs were generated by blotting mean±standard error of the mean (SEM) of the recorded glucose data per mouse per minute collection time. […]

[2] = rats, subcutaneous 0.1 mg/kg every other day (q2d); cited from earlier work
[3] = test system: type 2 diabetic NZO and DIO mice; assay: Serum testosterone and luteinizing hormone (PCOS phenotype); format: in vivo, mouse
Description: Hypertestosteronism (Hyperandrogenism) and low serum levels of Luteinizing hormone (LH) are among the cardinal biochemical features of established PCOS syndrome. […] Serum samples from tacrolimus-treated and saline-injected type 2 diabetic NZO and DIO mice were analyzed for their testosterone and luteinizing hormone (LH) levels in the morning of vaginal plug detection after mating and at 4.5 days later to assess the integrity of their pituitary-ovarian endocrine interactions during successful mating and at embryo implantation.
Twenty NZO and DIO/B6 female mice were maintained on a high fat diet consisted of 60% kcal fat, 20% kcal protein and 20% kcal carbohydrate, with a total energy mass of 5.24 kcal/gm (D12492, Research Diets Inc.; Cedarlane Laboratories, Burlington, Ontario, Canada) starting at 7 weeks of age and maintained on the diet for a total of 12 weeks of study period during which their weekly body weight changes and non-fasting blood glucose values were recorded. Mice which became obese as defined by having a Body mass index (BMI) value of 30, and tested positive for glucose intolerance were selected for an initial treatment episode with tacrolimus after being fed for four weeks with the high fat diet (See FIG. 2). […]

[4] = test system: grossly obese and glucose intolerant NZO female mice; assay: Weight loss in grossly obese mice; format: in vivo, mouse; details: 0.1 mg/kg every other day for four weeks; vs vehicle, p<0.05
Description: Data shown are mean±SEM of changes in body mass in mice administered tacrolimus (0.1 mg/kg every other day) for four weeks starting at week 16 (N=10/group). Statistical difference between groups was measured by one-way ANOVA at 95% confidence.
For studies on a grossly obese state, mice were maintained on the 60% high fat diet for 24 weeks starting at 7 weeks of age and designated as being type II diabetic according to methods described above.

NOD mice = NOD mice at younger age, model for Type 1 diabetes; cited from earlier work
diabetic NOD mice = assay: Weekly non-fasting blood glucose monitoring; format: in vivo, mouse; details: FIG. 16A
Description: Through the use of Ultra Glucosemeter (Accu-Chek Aviva/Roche Diagnostic, Laval, Quebec, Canada) blood glucose levels for all mice were monitored via tail venipuncture once a week on a regular basis beginning at the age of 8 weeks. Animals with non-fasting or those having blood glucose values ≧14.9 mmol/L after the glucose challenge (glucose tolerance) test were identified as diabetic. […] The selected mice were 9 weeks old and were treated with 0.1 mg/kg q2d of tacrolimus (Prograf (5 mg/ml), Astellas) subcutaneously administered in 0.2 ml saline for three weeks after which animals were mated to males of the same strain (See FIG. 1). Vehicle (0.2 ml saline, s.q.) treated hyperglycemic NOD female mice were allowed two weeks in diabetes before they were mated to males of the same strain. Facial (mandibular) venous blood samples were collected from treated animals at 24 and 48 hours between injections and at pregnancy days 0.5, 2.5, 4.5, 6.5, 8.5, 10.5, 12.5, 14.5, 16.5 and 18.5 respectively following a standard procedure for facial bleed in mice (Golde et al Lab Anim (NY) 2005 34:39-43).

For `C=CC[C@@H]1/C=C(\C)C[C@H](C)C[C@H](OC)[C@H]2O[C@@](O)(C(=O)C(=O)N3CCCC[C@H]3C(=O)O[C@H](/C(C)=C/[C@@H]3CC[C@@H](O)[C@H](OC)C3)[C@H](C)[C@@H](O)CC1=O)[C@H](C)C[C@@H]2OC` [tacrolimus], the glucose tolerance [1] is given as “restored normal glucose tolerance”, the maximal blood concentration [2] is given as 0.6 nanograms/ml and the “pituitary-ovarian response and hormonal release to mating” value ([3]; morning of vaginal plug and 4.5 days later) is given as “restored normal pituitary-ovarian response and hormonal release to mating”. The “development of PCOS phenotype (hypertestosteronism, low serum LH)” value ([3]; short-term administration, high fat diet) was “prevented the development of PCOS phenotype”, the weight loss [4] was “induced a significant weight loss” and the “suppression of overt diabetes, share of treated NOD mice” value (NOD mice) was 84%. The “weekly non-fasting blood glucose (glycemic phenotype)” value (diabetic NOD mice) was “effective in restoring normal glycemic phenotype”.
